{
  "source": "patent US11357749B2",
  "about": "“Methods for treating neutropenia” (Enzychem Lifesciences Corporation, priority 2014, dated 2022)",
  "key": {"p38 MAPK": {"test_system": "p38 MAPK", "assay": "p38 MAPK phosphorylation, western blot in IgE-antigen stimulated RBL-2H3 cells", "format": "cell-based", "conditions": "PLAG pre-incubated RBL-2H3 cells, IgE-antigen complex stimulation", "protocol": "Dephosphorylation of p38 MAPK and ERK1/2 in PLAG-treated RBL-2H3 cells is determined by western blot analysis using anti-phospho-p38 and anti-phospho-ERK1/2 respectively. To activate the p38 and ERK1/2 in RBL-2H3 cells, the cells are sensitized with 50 ng/mL of anti-DNP-IgE overnight. After washing with PBS three times, 20 ng/ml of DNP-HSA is added. Each cell lysate for western blot is prepared in the PLAG-treated RBL-2H3 cells in a dose-dependent manner and incubated for the same time (15 min). β-actin is used as internal controls. ERK1/2 and p38 phosphorylation start immediately after IgE-antigen complex stimulation and remain sufficiently activated for 5 min."}, "C3": {"test_system": "C3", "assay": "C3 mRNA (RT-PCR) in HepG2 cells", "format": "cell-based, human", "conditions": "2 hours", "protocol": "A liver cell line, HepG2 (American Type Culture Collection, ATCC, Rockville, Md.), is incubated and maintained at 37° C., 5% CO2 humid atmosphere in DMEM medium. When HepG2 cells, which are known to produce complement in culture, are treated with PLAG, the activity of complement is reduced effectively, as confirmed by RT-PCR of mRNA. In the RT-PCR, 5×10^5 number of HepG2 cells/ml are distributed into 12 well plates and induced C3 for 12 hours with 10% FCS. Then PLAG is added and further cultured for 2 hours. Cells are harvested and mRNA is isolated and RT-PCR is carried out with specific primer of C3; GAPDH is used as an internal control."}, "platelets [1]": {"test_system": "platelets", "assay": "Phenylhydrazine-induced platelet reduction in mice", "format": "in vivo", "conditions": "PHZ 100 mg/kg i.p. + PLAG 5 mg/kg oral", "protocol": "Mice are injected with 100 mg/kg phenylhydrazine (PHZ), i.p., to induce anemia and reduction of platelets. 5 mg/kg PLAG is administered to the mice orally and blood samples are taken at 3 and 13 days after. In addition, for comparison, normal mice which are not treated with phenylhydrazine are prepared as a normal group, and mice treated with PHZ and olive oil instead of PLAG are prepared as a control group. The blood samples taken from the mice are treated with 0.5 ml EDTA (Minicollect tube, Greiner bio-one, Austria) and concentration of platelet is measured using automated blood sample analyzer BC-6800 (Mindray, Shenzhen, China) by number of platelet per […] (k: 1,000)."}, "[2]": {"test_system": "neutrophils and lymphocytes", "assay": "Neutrophil and lymphocyte ratio in blood of LPS-treated Balb/C mice", "format": "in vivo", "conditions": "LPS 1 mg/kg i.p. + PLAG 5 mg/kg oral, % of total leukocytes", "protocol": "To observe the ratio of neutrophil and lymphocyte in the blood of Balb/C mice, 1 mg/kg of lipopolysaccharide (LPS) is injected to mice, i.p. to induce inflammation. 5 mg/kg of PLAG is administered to the mice orally and blood samples are taken at 3 and 13 days after. In addition, for comparison, normal mice that are not treated with PLAG, receive PBS (phosphate buffered saline) and olive oil. The blood samples taken from the mice are treated with EDTA bottle 0.5 ml (Minocollect tube, Greiner bio-one, Austria) and the level of neutrophils (NEU) and lymphocytes (LYM) as a percentage of total leukocytes is measured using automated blood sample analyzer BC-6800 (Mindray, Shenzhen, China)."}, "neutrophils [3]": {"test_system": "neutrophils", "assay": "Migration of neutrophils in LPS-injected mice (blood and lymph counts)", "format": "in vivo", "protocol": "Mice are injected with bacterial lipopolysaccharide (LPS) to provoke an inflammatory response, in the presence or absence of PLAG: […]"}, "Complement 3": {"test_system": "Complement 3", "assay": "Clinical study in healthy subjects: Complement 3 in blood", "format": "in vivo, human", "protocol": "A clinical study is conducted in Gwandong University MyungJi Hospital Clinical Study Center in Republic of Korea with 27 healthy patients to study immune-modulating effect of PLAG. Volunteers are tested for 30 days in vivo as oral administer (500 mg of PLAG per day) under a legitimate clinical approval. Complement 3 is counted using C3 assay kit. The analysis result is shown in FIG. 7, and change of immunoactivity by the administration of PLAG in healthy subjects is shown in Table 8 (effect of PLAG supplementation on immune function of peripheral blood after 4-wk intervention). As shown in FIG. 7 and Table 8, the majority of those who consume PLAG for a month (twenty-six (26) subjects out of 27 patients) show decreased complement 3 (C3), while the control group, who are treated with soybean oil, show both increase and decrease of C3."}, "platelets [4]": {"test_system": "platelets", "assay": "Pilot study in pancreatic cancer patients receiving chemotherapy: platelets", "format": "in vivo, human", "conditions": "16 patients, Gemcitabine and Erlotinib, PLAG 1,000 mg once per day orally, two cycles", "protocol": "(§1) PLAG is administered to sixteen pancreatic cancer patients after chemotherapy. The subjects of this study are unoperable pancreatic cancer patients with ECOG (Eastern Cooperative Oncology Group) performance status of “0” or “1”, i.e. patients in good physical condition without much pain, able to enjoy almost normal lifestyle and thus, eligible for anticancer treatment for at least 2 months. The pancreatic cancer patients are “locally advanced” patients having tumor metastasis to the major vessels around pancreas or “Distant metastasis” patients with distant metastasis to liver, lung, bone, etc. ECOG performance status “0” refers to a patient who is asymptomatic, fully active, able to carry on all predisease activities without restriction with no pain and no problem for normal lifestyle, while “1” refers to a patient who is symptomatic but completely ambulatory with mile pain and a little problem for normal life. Anticancer (Gemcitabine and Erlotinib combo treatment) Regimen is as follows: 1,000 mg of Gemcitabine is injected once a week for three weeks (Day 1, Day 8, Day 15), and is not injected in the next one week (Day 22). Therefore, 1 cycle of anticancer treatment requires 1 month. 100 mg of Erlotinib (Tarceva) is administered once per day everyday orally. 1,000 mg of PLAG is also administered once per day orally, starting from 3 days before anticancer treatment until the last chemotherapy treatment. The PLAG treatment group and control group both completed two cycles of anticancer treatment. There is no difference among the control and PALG treatment groups in the amount or schedule of anticancer treatment."}, "neutrophils [5]": {"test_system": "neutrophils", "assay": "Pilot study in pancreatic cancer patients receiving chemotherapy: neutrophils (ANC)", "format": "in vivo, human", "conditions": "16 patients, Gemcitabine and Erlotinib, PLAG 1,000 mg once per day orally, two cycles", "protocol": "as §1"}, "[6]": {"conditions": "stated as known; cited from earlier work"}},
  "data": [
    {"smiles": "CCCCC/C=C\\C/C=C\\CCCCCCCC(=O)OC(COC(C)=O)COC(=O)CCCCCCCCCCCCCCC", "note": "(racemic) [PLAG, 1-palmitoyl-2-linoleoyl-3-acetylglycerol]", "values": [
      {"measurement": "p38 phosphorylation", "setting": "p38 MAPK", "value": "down-regulated"},
      {"measurement": "C3 expression (RT-PCR)", "setting": "C3; HepG2, 1 microgram/ml", "value": "somewhat"},
      {"measurement": "C3 expression (RT-PCR)", "setting": "C3; HepG2, 10 microgram/ml", "value": "entirely"},
      {"measurement": "Platelet (day 3) Conc", "setting": "platelets [1]; day 3", "value": "1072 ± 125.4", "unit": "k/ul"},
      {"measurement": "Platelet (day 13) Conc", "setting": "platelets [1]; day 13", "value": "1188.8 ± 115.6", "unit": "k/ul"},
      {"measurement": "Lymphocyte ratio", "setting": "[2]", "value": "34.6 ± 7.0", "unit": "%"},
      {"measurement": "Neutrophil Ratio", "setting": "[2]", "value": "53.2 ± 6.3", "unit": "%"},
      {"measurement": "Neutrophil count in blood", "setting": "neutrophils [3]; LPS + PLAG", "value": 3.41, "unit": "k/μl"},
      {"measurement": "Neutrophil count in lymph", "setting": "neutrophils [3]; LPS + PLAG", "value": 1.48, "unit": "k/μl"},
      {"measurement": "migration of neutrophils to the lymph node", "setting": "neutrophils [3]; LPS + PLAG vs LPS only", "value": "inhibits migration"},
      {"measurement": "subjects showing decreased complement 3 (C3)", "setting": "Complement 3; 500 mg PLAG per day oral for a month", "value": "26 subjects out of 27"},
      {"measurement": "decrease of average concentration of C3 in blood", "setting": "Complement 3; after administration of PLAG 500 mg per day, 30 days", "value": "about 10 mg/dL"},
      {"measurement": "C3, After", "setting": "Complement 3; healthy subjects n = 27, 500 mg PLAG per day oral, after 4-wk intervention", "value": "99.7 ± 12.4", "unit": "mg/dL"},
      {"measurement": "C3, Before", "setting": "Complement 3; healthy subjects n = 27, before PLAG supplementation", "value": "109.5 ± 13.0", "unit": "mg/dL"},
      {"measurement": "patients whose platelet number dropped to less than 25,000", "setting": "platelets [4]", "value": "no patient"},
      {"measurement": "patients with >50% decrease in platelet count", "setting": "platelets [4]", "value": 43.8, "unit": "%"},
      {"measurement": "patients with >60% decrease in platelet count", "setting": "platelets [4]", "value": 25, "unit": "%"},
      {"measurement": "patients with >70% decrease in platelet count", "setting": "platelets [4]", "value": "none"},
      {"measurement": "patients with anticancer treatment postponed or dose adjusted due to platelet number decrease to less than 50,000", "setting": "platelets [4]", "value": "no patient"},
      {"measurement": "patients with neutrophil (ANC) decrease to less than 1,500/μl", "setting": "neutrophils [5]", "value": 37.5, "unit": "%"},
      {"measurement": "patients with neutrophil decrease to less than 500/μl", "setting": "neutrophils [5]", "value": "none"},
      {"measurement": "patients with neutrophil decrease to less than 1,000/μl", "setting": "neutrophils [5]", "value": 18.8, "unit": "%"},
      {"measurement": "patients with neutrophil number decrease to less than 50%", "setting": "neutrophils [5]", "value": 37.5, "unit": "%"},
      {"measurement": "patients with neutrophil number decrease to less than 60%", "setting": "neutrophils [5]", "value": 18.8, "unit": "%"},
      {"measurement": "patients with neutrophil number decrease to less than 75%", "setting": "neutrophils [5]", "value": "none"},
      {"measurement": "toxicity in GLP toxicity test", "setting": "[6]", "value": "no toxicity"}
    ]}
  ]
}
